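Five compound concentrations were applied to cells in 96-well plates for 48 hours; endpoints were derived by simple linear interpolation of the resulting dose-response curve. The concentration for 50% growth inhibition is given as GI50.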 Active and inactive are the calls of the source. No stated cut-off is given here; in the data, active = GI50 up to about 1.1 µM and inactive = higher.
Assays:
Experiment in all cases: NCI anticancer screen, dose series, 48 h
UACC-257 = system: UACC-257
SN12C = system: SN12C
IGROV-1 = system: IGROV-1
RPMI-8226 = system: RPMI-8226
SR = system: SR
SK-OV-3 = system: SK-OV-3
SNB-19 = system: SNB-19
OVCAR-5 = system: OVCAR-5
NCI-H460 = system: NCI-H460
M14 = system: M14
HL-60 = system: HL-60
COLO 205 = system: COLO 205
CAKI-1 = system: CAKI-1
SNB-75 = system: SNB-75

SMILES | GI50 (UACC-257) | GI50 (SN12C) | GI50 (IGROV-1) | GI50 (RPMI-8226) | GI50 (SR) | GI50 (SK-OV-3) | GI50 (SNB-19) | GI50 (OVCAR-5) | GI50 (NCI-H460) | GI50 (M14) | GI50 (HL-60) | GI50 (COLO 205) | GI50 (CAKI-1) | GI50 (SNB-75)
CSC(=N)N1N=C2c3ccccc3CC[C@@H]2[C@@H]1c1ccccc1 | 18.5 µM (inactive) | 16.4 µM (inactive) | 14.5 µM (inactive) | 12.1 µM (inactive) | 10.4 µM (inactive) | 18.1 µM (inactive) | 16.4 µM (inactive) | 17.7 µM (inactive) | 13.2 µM (inactive) | 13.2 µM (inactive) | 10.6 µM (inactive) | 13.1 µM (inactive) |  | 
CCCCCC(=O)N[C@H]1CCc2cc(O)c(O)c(O)c2-c2ccc(SC)c(=O)cc21 | 37.5 µM (inactive) | 20.3 µM (inactive) | 38.4 µM (inactive) | 70.5 µM (inactive) | 22.8 µM (inactive) | 23.3 µM (inactive) | 43.3 µM (inactive) | > 100 µM (inactive) | 38.4 µM (inactive) | 19 µM (inactive) | 20.5 µM (inactive) | 23.3 µM (inactive) | 28.3 µM (inactive) | 32.2 µM (inactive)
Cc1ccc(NC(=O)C2C3CCC(O3)C2C(=O)O)cc1 (centres undefined) | > 100 µM (inactive) | > 48.8 µM (inactive) | > 100 µM (inactive) | 39.6 µM (inactive) | 15.7 µM (inactive) | > 83.9 µM (inactive) | > 100 µM (inactive) | > 100 µM (inactive) | > 71.4 µM (inactive) | > 49.4 µM (inactive) | > 40.2 µM (inactive) | 35.7 µM (inactive) | > 100 µM (inactive) | 31.9 µM (inactive)
CC(=O)N1C(=O)C(=O)c2cc(Cl)ccc21 |  | > 100 µM (inactive) | > 100 µM (inactive) | > 100 µM (inactive) | > 100 µM (inactive) | > 100 µM (inactive) | > 100 µM (inactive) | > 100 µM (inactive) | > 100 µM (inactive) | > 100 µM (inactive) | > 100 µM (inactive) | > 100 µM (inactive) |  | > 100 µM (inactive)
COc1nc(OC)nc(Sc2ccc(Sc3ccc(Sc4nc(OC)nc(OC)n4)cc3)cc2)n1 | > 100 µM (inactive) | > 100 µM (inactive) | > 100 µM (inactive) | > 100 µM (inactive) | 7.52 µM (inactive) | > 100 µM (inactive) | > 100 µM (inactive) | > 100 µM (inactive) | > 100 µM (inactive) | > 100 µM (inactive) | > 100 µM (inactive) | > 100 µM (inactive) | > 100 µM (inactive) | > 100 µM (inactive)
O=C(Nc1cccc(O)c1)C(=O)C(C(=O)c1ccc(Cl)c(Cl)c1)C1OC(=O)c2ccccc21 (centres undefined) | 20.6 µM (inactive) | 18.6 µM (inactive) | 22.2 µM (inactive) | 16 µM (inactive) | 4.44 µM (inactive) | 12.8 µM (inactive) | 13.3 µM (inactive) | 22 µM (inactive) | 13.2 µM (inactive) | 20.2 µM (inactive) | 12.9 µM (inactive) | 15.9 µM (inactive) | 27.2 µM (inactive) | 17.8 µM (inactive)
Oc1cccc2c1NC1=C(CCC/C1=C\c1ccccc1)C2 | 57.9 µM (inactive) | > 10 µM (inactive) | > 100 µM (inactive) | 52 µM (inactive) | 50.1 µM (inactive) | > 100 µM (inactive) | > 100 µM (inactive) |  | 57.1 µM (inactive) | 33.5 µM (inactive) | 40.1 µM (inactive) | > 100 µM (inactive) |  | 
OC1CN(OC/C=C/c2ccccc2)CC(O)C1O (centres undefined) | > 100 µM (inactive) | > 100 µM (inactive) | > 100 µM (inactive) | 44.3 µM (inactive) |  | > 100 µM (inactive) | > 100 µM (inactive) | > 100 µM (inactive) | 63.4 µM (inactive) | > 100 µM (inactive) | > 100 µM (inactive) | > 100 µM (inactive) | > 100 µM (inactive) | > 100 µM (inactive)
Cc1cccc(C2=C/C(=C(\SS/C(C(=O)c3ccc(OCC(=O)O)c(Cl)c3Cl)=C3\C=C(c4cccc(C)c4)SS3)C(=O)c3ccc(OCC(=O)O)c(Cl)c3Cl)SS2)c1 | 34.4 µM (inactive) | 14.8 µM (inactive) | 12.1 µM (inactive) | 16.9 µM (inactive) |  | 36.6 µM (inactive) | 10.9 µM (inactive) | 30.4 µM (inactive) | 27.2 µM (inactive) | 22.1 µM (inactive) | 1.85 µM (inactive) | 7.94 µM (inactive) | 23.1 µM (inactive) | 18.7 µM (inactive)
COC(=O)C(=O)C(C(=O)C(=O)Nc1ccc([N+](=O)[O-])cc1)c1nc2ccccc2nc1O (centres undefined) | 55.7 µM (inactive) | > 100 µM (inactive) | > 100 µM (inactive) | > 100 µM (inactive) |  | > 100 µM (inactive) | > 100 µM (inactive) |  | > 100 µM (inactive) | 42.2 µM (inactive) | > 100 µM (inactive) | > 100 µM (inactive) | 53.2 µM (inactive) | > 100 µM (inactive)
Cc1ccc(NC(=O)CC(=O)n2nc(-c3ccccc3)c(/N=N/c3ccc(Cl)cc3)c2-c2ccccc2)cc1 | 33.8 µM (inactive) | 31.6 µM (inactive) | 57.7 µM (inactive) | 23.3 µM (inactive) |  | 27.5 µM (inactive) | 42.6 µM (inactive) | > 100 µM (inactive) | 40.3 µM (inactive) | > 100 µM (inactive) | 0.221 µM (active) | 35 µM (inactive) | > 100 µM (inactive) | 22.6 µM (inactive)
C=C1CC(CCCl)(c2ccccc2)OC1=O (centres undefined) | 44.2 µM (inactive) | 31.5 µM (inactive) | > 100 µM (inactive) | 15.8 µM (inactive) | 20.1 µM (inactive) | > 100 µM (inactive) | > 78.7 µM (inactive) | > 100 µM (inactive) | > 100 µM (inactive) | 19.5 µM (inactive) | 19.8 µM (inactive) | 29 µM (inactive) |  | 22.4 µM (inactive)
Cc1cc2c(=O)cc(-c3ccncc3)oc2c(C(=O)O)c1C | > 100 µM (inactive) | > 100 µM (inactive) | > 100 µM (inactive) | > 100 µM (inactive) | > 100 µM (inactive) | > 100 µM (inactive) | > 100 µM (inactive) | > 100 µM (inactive) | > 100 µM (inactive) |  | > 100 µM (inactive) | > 100 µM (inactive) |  | > 100 µM (inactive)
COc1ccc(/C=C/C(C(=O)O)C(=O)O)cc1 | 97.9 µM (inactive) | 51.3 µM (inactive) | > 100 µM (inactive) | 32.8 µM (inactive) | 34.8 µM (inactive) | > 100 µM (inactive) | 70.5 µM (inactive) | 78.5 µM (inactive) | > 100 µM (inactive) | 75.7 µM (inactive) | 24.3 µM (inactive) | > 100 µM (inactive) | > 100 µM (inactive) | 
C#C[C@]1(O)CCCC2=CC(=O)CC[C@@]21C | > 100 µM (inactive) | > 100 µM (inactive) | > 100 µM (inactive) | > 100 µM (inactive) | > 100 µM (inactive) | > 100 µM (inactive) | > 100 µM (inactive) | > 100 µM (inactive) | > 100 µM (inactive) | > 100 µM (inactive) | > 100 µM (inactive) | > 100 µM (inactive) |  | 
Cn1cnc([N+](=O)[O-])c1Sc1nnnn1-c1ccccc1 | 13.7 µM (inactive) | 15.7 µM (inactive) | 16.2 µM (inactive) | 11.4 µM (inactive) |  | 46.9 µM (inactive) | 33.2 µM (inactive) | 17.8 µM (inactive) | 16.5 µM (inactive) | 10.9 µM (inactive) |  | 8.09 µM (inactive) | 15.9 µM (inactive) | 16.4 µM (inactive)
CCOC(=O)/C(=C/c1ccccc1Br)P(=O)(OCC)OCC |  | 2.06 µM (inactive) | 3.28 µM (inactive) | 0.815 µM (active) |  |  | 2.49 µM (inactive) | 2.53 µM (inactive) | 2.87 µM (inactive) | 1.54 µM (inactive) | 0.226 µM (active) |  | 2.09 µM (inactive) | 1.48 µM (inactive)
NC(CCSCCF)C(=O)O (centres undefined) |  | > 100 µM (inactive) | > 100 µM (inactive) | > 100 µM (inactive) | > 100 µM (inactive) | > 100 µM (inactive) | > 100 µM (inactive) | > 100 µM (inactive) | > 100 µM (inactive) | > 100 µM (inactive) | > 100 µM (inactive) | > 100 µM (inactive) | > 100 µM (inactive) | 
C[C@@H](CO)OCOCc1ccccc1 | > 100 µM (inactive) | > 100 µM (inactive) | > 100 µM (inactive) | > 100 µM (inactive) |  | > 100 µM (inactive) | > 100 µM (inactive) |  | > 100 µM (inactive) | > 100 µM (inactive) | > 100 µM (inactive) | > 100 µM (inactive) | > 100 µM (inactive) | > 100 µM (inactive)
CSCC(COC(C)=O)(CSC)c1ccncc1 | > 100 µM (inactive) | > 100 µM (inactive) | > 100 µM (inactive) | > 100 µM (inactive) | > 100 µM (inactive) | > 100 µM (inactive) | > 100 µM (inactive) |  | > 100 µM (inactive) | > 100 µM (inactive) | > 100 µM (inactive) | > 100 µM (inactive) | > 100 µM (inactive) | 85.7 µM (inactive)
NNC(=O)N/N=C1\CNC(=O)C(=O)C1c1nc2ccccc2s1 (centres undefined) | > 100 µM (inactive) | > 100 µM (inactive) | > 100 µM (inactive) | > 100 µM (inactive) |  | > 100 µM (inactive) | > 100 µM (inactive) | > 100 µM (inactive) | > 100 µM (inactive) | > 100 µM (inactive) | > 100 µM (inactive) | > 100 µM (inactive) | > 100 µM (inactive) | > 100 µM (inactive)
